Assay results: patent publication US20260014147A1, “STAT6 DEGRADERS” (Gilead Sciences, Inc., priority 2024, published 2026)

Target: T1, STAT6 (endogenous, HiBiT-tagged) in HeLa LgBiT clone 4.14 cells (Homo sapiens, UniProt P42226)
T1 construct: These cells express endogenous STAT6; host or cells: HeLa LgBiT clone 4.14
T1 sequence (P42226 1-847): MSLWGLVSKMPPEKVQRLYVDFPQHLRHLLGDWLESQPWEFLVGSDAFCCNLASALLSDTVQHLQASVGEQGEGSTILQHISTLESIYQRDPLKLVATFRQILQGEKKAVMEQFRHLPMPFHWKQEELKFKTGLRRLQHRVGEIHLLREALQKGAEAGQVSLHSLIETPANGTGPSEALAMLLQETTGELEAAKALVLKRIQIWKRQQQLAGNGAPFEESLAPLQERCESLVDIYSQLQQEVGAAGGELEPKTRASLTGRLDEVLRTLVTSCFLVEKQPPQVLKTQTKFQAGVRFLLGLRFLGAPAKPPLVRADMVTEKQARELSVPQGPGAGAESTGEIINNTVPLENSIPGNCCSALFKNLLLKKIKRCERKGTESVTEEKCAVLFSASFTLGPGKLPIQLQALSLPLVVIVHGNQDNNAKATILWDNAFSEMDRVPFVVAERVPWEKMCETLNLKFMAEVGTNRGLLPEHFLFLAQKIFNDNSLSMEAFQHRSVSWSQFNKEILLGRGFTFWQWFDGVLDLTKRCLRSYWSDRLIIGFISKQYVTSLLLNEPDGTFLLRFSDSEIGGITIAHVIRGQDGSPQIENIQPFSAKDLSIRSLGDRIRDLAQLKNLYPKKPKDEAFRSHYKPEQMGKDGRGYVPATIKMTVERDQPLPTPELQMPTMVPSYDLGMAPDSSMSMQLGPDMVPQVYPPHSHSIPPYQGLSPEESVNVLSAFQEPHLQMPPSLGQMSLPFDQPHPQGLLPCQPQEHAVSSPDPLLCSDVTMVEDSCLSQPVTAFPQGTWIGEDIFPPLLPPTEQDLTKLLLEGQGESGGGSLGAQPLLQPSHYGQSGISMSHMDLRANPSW
Assay: STAT6 Degrader Assay (HiBiT based, HeLa LgBiT clone 4.14 cells, luminescence, DC50)
Assay type: cell-based
Conditions: DC50 provided for test compounds with >80% Emax, geometric mean, read-out: STAT6 degradation DC50
Summary of the method: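 Remaining STAT6 is read as NanoBiT luminescence after 0.5 h with Nano-Glo, in HeLa LgBiT clone 4.14 cells expressing endogenous HiBiT-tagged STAT6, following 4-24 h compound incubation at 37 °C. Full degradation is set by 50 µM terfenadine, which kills the cells; degradation plotted against log compound concentration.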

Point of comparison: Cn1c(CN2CCC(c3ccc(C(=O)N4CCC(CN5CCC(N6CCC(c7ccc(NC8CCC(=O)NC8=O)cc7F)CC6)C(F)(F)C5)CC4)cc3)CC2)cc2c(-c3ccc4[nH]ncc4c3)ccnc21 (stereo not drawn) [Example 2h1, 3-((4-(1′-((1-(4-(1-((4-(1H-indazol-5-yl)-1-methyl-1H-pyrrolo[2,3-b]pyridin-2-yl)methyl)-piperidin-4-yl)benzoyl)piperidin-4-yl)methyl)-3′, 3′-difluoro-[1,4′-bipiperidin]-4-yl)-3-fluorophenyl)-amino)piperidine-2,6-dione], DC50 66.3 nM. Against it:
- CNc1ccc(-c2ccnc3c2cc([C@H](C)N2CCC(c4ccc(C(=O)N5CCC(CN6CCN(c7ccc(NC8CCC(=O)NC8=O)c(F)n7)CC6)CC5)cc4)CC2)n3C)cn1 (stereo partly drawn) [Example 2n14, 3-((2-fluoro-6-(4-((1-(4-(1-((S)-1-(1-methyl-4-(6-(methylamino)pyridin-3-yl)-1H-pyrrolo[2,3-b]pyridin-2-yl)ethyl)piperidin-4-yl)benzoyl)piperidin-4-yl)methyl)piperazin-1-yl)pyridin-3-yl)amino)piperidine-2,6-dione] — within 1.5-fold, 49 nM
- Cn1c(CN2CCC(c3ccc(C(=O)N4CCC(CN5CCC(N6CCN(c7ccc(NC8CCC(=O)NC8=O)cc7F)CC6)C(F)(F)C5)CC4)cc3)CC2)cc2c(-c3ccc4[nH]ncc4c3)ccnc21 (stereo not drawn) [Example 2p1, 3-((4-(4-(1-((1-(4-(1-((4-(1H-indazol-5-yl)-1-methyl-1H-pyrrolo[2,3-b]pyridin-2-yl)methyl)-piperidin-4-yl)benzoyl)piperidin-4-yl)methyl)-3,3-difluoropiperidin-4-yl)piperazin-1-yl)-3-fluorophenyl)-amino)piperidine-2,6-dione] — 1.8-fold lower, 36.9 nM
- CC(c1cc2c(-c3ccc(N)nc3)ccnc2n1C)N1CCC(c2ccc(C(=O)N3CCC(CN4CCN(c5ccc(N[C@@H]6CCC(=O)NC6=O)cc5F)CC4)CC3)cc2)CC1 (single isomer, unassigned) [Example 2c12] — 3.7-fold lower, 17.7 nM

Same assay, conditions: Emax provided for test compounds with <80% Emax (and 2c15), geometric mean, read-out: STAT6 degradation Emax

First: COc1cc(N2CCN(CC3CCN(C(=O)c4ccc(C5CCN(Cc6cc7c(-c8ccc9[nH]ncc9c8)ccnc7n6C)CC5)cc4)CC3)CC2)c(F)cc1NC1CCC(=O)NC1=O (stereo not drawn) [Example 2i1, 3-((4-(4-((1-(4-(1-((4-(1H-indazol-5-yl)-1-methyl-1H-pyrrolo[2,3-b]pyridin-2-yl)methyl)-piperidin-4-yl)benzoyl)piperidin-4-yl)methyl)piperazin-1-yl)-5-fluoro-2-methoxyphenyl)amino)-piperidine-2,6-dione]
Second: Cn1c(CN2CCC(c3ccc(C(=O)N4CCC(CN5CCN(c6cccc(NC7CCC(=O)NC7=O)c6)CC5)CC4)cc3)CC2)cc2c(-c3ccc4[nH]ncc4c3)ccnc21 (stereo not drawn) [Example 2l1, 3-((3-(4-((1-(4-(1-((4-(1H-indazol-5-yl)-1-methyl-1H-pyrrolo[2,3-b]pyridin-2-yl)methyl)-piperidin-4-yl)benzoyl)piperidin-4-yl)methyl)piperazin-1-yl)phenyl)amino)piperidine-2,6-dione]
The Emax of the first is lower: 40 to 50% for the first, 60 to 70% for the second.

Compared with Cn1c(CN2CCN(c3ccc(C(=O)N4CCC(CN5CCN(c6ccc(NC7CCC(=O)NC7=O)cc6F)CC5)CC4)cc3)CC2)cc2c(-c3ccc(N)nc3)ccnc21 (stereo not drawn) [Example 2c39, 3-((4-(4-((1-(4-(4-((4-(6-aminopyridin-3-yl)-1-methyl-1H-pyrrolo[2,3-b]pyridin-2-yl)methyl)piperazin-1-yl)benzoyl)piperidin-4-yl)methyl)piperazin-1-yl)-3-fluorophenyl)amino)piperidine-2,6-dione], COCc1nc2cc(-c3ccnc4c3cc(CN3CCC(c5ccc(C(=O)N6CCC(CN7CCN(c8ccc(NC9CCC(=O)NC9=O)cc8F)CC7)CC6)cc5)CC3)n4C)ccc2[nH]1 (stereo not drawn) [Example 2c4, 3-((3-fluoro-4-(4-((1-(4-(1-((4-(2-(methoxymethyl)-1H-benzo[d]imidazol-5-yl)-1-methyl-1H-pyrrolo[2,3-b]pyridin-2-yl)methyl)piperidin-4-yl)benzoyl)piperidin-4-yl)methyl)piperazin-1-yl)phenyl)-amino)piperidine-2,6-dione] is higher in Emax: less than 20% for the first, 70 to 80% for the second.

Compound Cc1cc(C(=O)N2CCn3nc(CN4CCC(c5ccc(NC6CCC(=O)NC6=O)cc5F)CC4)cc3C2)cnc1C1=CCN(Cc2cc3c(-c4ccc(N)nn4)ccnc3n2C)CC1 (stereo not drawn) [Example 2c48, 3-((4-(1-((5-(1′-((4-(6-aminopyridazin-3-yl)-1-methyl-1H-pyrrolo[2,3-b]pyridin-2-yl)methyl)-3-methyl-1′, 2′, 3′, 6′-tetrahydro-[2,4′-bipyridine]-5-carbonyl)-4,5,6,7-tetrahydropyrazolo[1,5-a]pyrazin-2-yl)methyl)piperidin-4-yl)-3-fluorophenyl)amino)piperidine-2,6-dione] has an Emax of less than 20%.

System: Eotaxin-3 (CCL26) release in human whole blood stimulated with IL-4
Assay: Human Whole Blood Eotaxin-3 Assay (IL-4 stimulated, inhibition of eotaxin-3 release)
Assay type: cell-based
Conditions: Homo sapiens, EC50 provided for test compounds with >80% Emax, geometric mean across assay runs and batches
Description: This was a human whole blood assay using recombinant human Interleukin 4 to stimulate the blood and measuring the ability of the test compounds to inhibit eotaxin-3 release. The biological activities of the test compounds have been tested in human whole blood stimulated with IL-4 measuring Eotaxin-3 release. The test compounds were added to 384 well clear flat-bottom plate in a 4-fold serial dilution in triplicates using a liquid handler. Human whole blood stabilized in lithium-heparin tubes was added in a volume of 65 uL per well, resulting in a final DMSO concentration of 0.5%. The plate is incubated for 2 h at 37° C. under 5% CO2/95% air. Subsequently, 5 μL of recombinant human IL-4 (R&D Systems, cat #204-ILB) was added to the wells to a final concentration of 400 pM. The plate was incubated for 48 h at 37° C. under 5% CO2/95% air. The plate was spun down for 10 minutes at 500×g and 20 uL supernatant was harvested and transferred to a 384 well v-bottom plate using a liquid handler and stored at −20° C. until further analysis. 10 uL supernatant was used to measure the level of Eotaxin-3 (CCL26) using Human Eotaxin-3 MSD kit from Mesocsale (Cat #K251UEK-4). The assay was performed according to the manufacture instructions.
The data from the human whole blood eotaxin-3 assay is shown below for Examples 2q11, 2110, and 2c49 (where the effect in % is plotted against the test concentration in M on a log-scale).

Point of comparison: CNc1ccc(-c2ccnc3c2cc([C@H](C)N2CC=C(c4c(C)cc(C(=O)N5CCC(CN6CCN(c7ccc(NC8CCC(=O)NC8=O)cc7F)C[C@@H]6C)CC5)cc4F)CC2)n3C)cn1 (stereo partly drawn) [Example 2c47, 3-((3-fluoro-4-((S)-4-((1-(3-fluoro-5-methyl-4-(1-((S)-1-(1-methyl-4-(6-(methylamino)pyridin-3-yl)-1H-pyrrolo[2,3-b]pyridin-2-yl)ethyl)-1,2,3,6-tetrahydropyridin-4-yl)benzoyl)piperidin-4-yl)methyl)-3-methylpiperazin-1-yl)phenyl)amino)piperidine-2,6-dione], EC50 197 nM. Against it:
- C[C@H]1CN(c2ccc(NC3CCC(=O)NC3=O)cc2F)CCN1CC1CCN(C(=O)c2ccc(C3CCN([C@@H](C)c4cc5c(-c6ccc(N)nc6)ccnc5n4C)CC3)cc2)CC1 (stereo partly drawn) [Example 2c54, 3-((4-((S)-4-((1-(4-(1-((S)-1-(4-(6-aminopyridin-3-yl)-1-methyl-1H-pyrrolo[2,3-b]pyridin-2-yl)ethyl)piperidin-4-yl)benzoyl)piperidin-4-yl)methyl)-3-methylpiperazin-1-yl)-3-fluorophenyl)amino)piperidine-2,6-dione] — within 1.5-fold, 265 nM
- COc1cc(N2CCN(CC3CCN(C(=O)c4ccc(C5CCN([C@@H](C)c6cc7c(-c8ccc(N)nc8)ccnc7n6C)CC5)cc4)CC3)CC2)ccc1NC1CCC(=O)NC1=O (stereo partly drawn) [Example 2c40, 3-((4-(4-((1-(4-(1-((S)-1-(4-(6-aminopyridin-3-yl)-1-methyl-1H-pyrrolo[2,3-b]pyridin-2-yl)ethyl)piperidin-4-yl)benzoyl)piperidin-4-yl)methyl)piperazin-1-yl)-2-methoxyphenyl)amino)piperidine-2,6-dione] — 1.8-fold lower, 112 nM
- C[C@@H](c1cc2c(-c3ccc(N)nc3)ccnc2n1C)N1CCC(c2ccc(C(=O)N3CCC(CN4CCN(c5ccc(NC6CCC(=O)NC6=O)cc5F)C[C@H]4C(F)(F)F)CC3)cc2)CC1 (single isomer, unassigned) [Example 2f10] — 2-fold higher, 385 nM
- C[C@@H](c1cc2c(-c3ccc(N)nc3)ccnc2n1C)N1CCC(c2ccc(C(=O)N3CCC(CN4CCN(c5ccc(NC6CCC(=O)NC6=O)cc5F)C[C@@H]4C(F)(F)F)CC3)cc2)CC1 (single isomer, unassigned) [Example 2f11] — 2.1-fold higher, 406 nM
- C[C@@H](c1cc2c(-c3ccc(N)nc3)ccnc2n1C)N1CCC(c2ccc(C(=O)N3CCn4nc(CN5CCN(c6ccc(NC7CCC(=O)NC7=O)cc6F)CC5)cc4C3)cc2)CC1 (stereo partly drawn) [Example 2q15, 3-((4-(4-((5-(4-(1-((S)-1-(4-(6-aminopyridin-3-yl)-1-methyl-1H-pyrrolo[2,3-b]pyridin-2-yl)-ethyl)piperidin-4-yl)benzoyl)-4,5,6,7-tetrahydropyrazolo[1,5-a]pyrazin-2-yl)methyl)piperazin-1-yl)-3-fluoro-phenyl)amino)piperidine-2,6-dione] — 5.2-fold lower, 37.8 nM
